According to patent US20250213700A1, “COMPOUNDS, COMPOSITIONS, AND METHODS FOR CELL-SPECIFIC PHARMACOLOGY” (Duke University, priority 2022, published 2025):

What was measured:
[1] = system: NMDA or AMPA-mediated transmission; assay: VTA slice, NMDA or AMPA-mediated transmission; format: cell-based, mouse
Description: Electrophysiology. Preparation of Brain slices: Mice (8-10 weeks) were injected AAV10 HaloTag™-dTomato to striatum or ventral tegmental area (VTA). After 3-5 weeks, mice were deeply anesthetized with isoflurane and euthanized by decapitation. Coronal brain slices ([…]) containing striatum or VTA were prepared by standard methods using a Vibratome (Leica, VT 1200S), in ice-cold high sucrose cutting solution containing (in mM) 220 sucrose, 3 KCl, 1.25 NaH2PO4, 25 NaHCO3, 12 MgSO4.7H2O, 10 glucose, and 0.2 CaCl2) bubbled with 95% O2 and 5% CO2. […]
Whole-cell patch-clamp recording: The brain slices or retinas were perfused with bubbled aCSF at 29-30° C. with a 2 ml/min flow rate. […] Series resistance was monitored using 5-10 mV hyperpolarizing step throughout the experiment, and cells were discarded if series resistance changed more than ˜15% during the experiment. […] Statistical significance was determined using Student's t or one-way or two-way ANOVA tests. eIPSCs or eEPSCs decay time constants were obtained by fitting a single-exponential function, I(t)=I exp(−t/T)+ISS, where I(t) is the amplitude of the current at time t and ISS is the steady-state current, I is instantaneous current subtracted from Iss, and t is the time constant of decay. […]

[2] = system: DAT-Cre mice with +HTP or ddHTP in VTA dopamine neurons; assay: locomotor speed after infusion into the VTA of DAT-Cre mice; format: in vivo, mouse; details: for running / locomotor speed, +HTP mice: 10:1 mixture with Alexa647.1DART.2, 1.2 μL of 10 μM into the VTA; for running / locomotor speed, ddHTP mice: same dose
Excerpt: (FIG. 4A) Validation of gabazine.1^DART.2 in cerebellar slice. Top: voltage-clamp schematic. Bottom: tonic GABAAR in granule cells expressing ^+HTP or ^ddHTP. […] Data are mean±SEM, cells normalized to baseline. (FIG. 4B) In vivo delivery of gabazine.1^DART.2 to cerebellar granule cells. Top right: schematic of experimental approach, GCaMP6f granule-cell activity obtained in the absence of sensory stimuli. Top left: example field of view, GCaMP6f signal averaged across trials. Bottom: example calcium traces (ΔF/F) in an awake ^+HTP mouse before (baseline) and after (1 μL of 1 μM gabazine.1^DART.2) infusion. (FIG. 4C) In vivo, 1 μL of 1 μM gabazine.1^DART.2 to ^+HTP mice. Color indicates ΔF/F, each row is one cell before (left) and after (right) gabazine.1^DART.2 infusion. […] (FIG. 4D) In vivo, 1 μL of 1 μM gabazine.1^DART.2 to ^ddHTP mice. Format as in panel C. […] (FIG. 4E) Validation of gabazine.7^DART.2 in VTA slice. Top: evoked-IPSC configuration. […] Data are mean±SEM, cells normalized to baseline. […] Data are mean±SEM, normalized to baseline speed of each animal.
Behavioral assays: Assays were performed at least 3 weeks after viral injection to allow for recombinant protein expression. Mice were acclimated to head-fixation for 3 consecutive days prior to behavioral experiments. Reagents were infused into the brain via the cranial cannula. Immediately following infusion, mice were placed into open-field chambers (27 cm×27 cm) in the dark, and behavior was recorded using infrared video.
A practical issue for intrinsically active neurons is that one can no longer leverage the concept of a floor-effect (i.e., silencing an already quiet neuron), making it difficult to apply optogenetic principles of necessity and sufficiency. Thus, it was sought to examine the technical feasibility of using DART to block neurotransmitter signaling onto these cells; in essence, preventing extrinsic neurotransmitter modulation of dopamine neurons, without disrupting their intrinsic rhythm. Moreover, it was sought to use behavior as the readout, which would likely require manipulation of more cells over a larger brain volume than in the prior experiment. Given this goal, a wide dosing window is key, and thus effort was focused on gabazine.7DART.2, with expression of AAV DIO +HTPGPI or AAV DIO ddHTPGPI in DAT-Cre mice. […] Next, locomotor effects of the manipulations were assessed using the same viral parameters along with bilateral indwelling cannula.

Row | SMILES | impact on NMDA or AMPA-mediated transmission ([1]; +HTP cells) | running / locomotor speed, +HTP mice [2] | running / locomotor speed, +HTP mice ([2]; listed as gabazine.7^DART.2) | running / locomotor speed, ddHTP mice [2] | running / locomotor speed, ddHTP mice ([2]; listed as gabazine.7^DART.2) | antagonism of the AMPAR in slice [1] | impact on locomotion ([2]; VTA dopamine neurons)
1 | COc1cc(CCCCl)ccc1CCOCCNC(=O)c1ccc(CNC(=O)CCOCCOCCOCCOCCOCCOCCOCCOCCOCCOCCOCCOCCOCCOCCOCCOCCOCCOCCOCCOCCOCCOCCOCCOCCOCCOCCOCCOCCOCCOCCOCCOCCOCCOCCOCCOCCn2cc(COCCOCCOCCOCCOCCOCCOCCCCCCOc3ccc(-c4nn(CCCCC(=O)O)c(=N)cc4C)cc3)nn2)cc1 [gabazine.7DART.2] | no impact on NMDA or AMPA-mediated transmission | significant increase in running speed | increased locomotor speed | no impact in ^ddHTP animals | not in ^ddHTP control mice |  | 
2 | COc1cc(CCCCl)ccc1CCOCCNC(=O)c1ccc(CNC(=O)CCOCCOCCOCCOCCOCCOCCOCCOCCOCCOCCOCCOCCOCCOCCOCCOCCOCCOCCOCCOCCOCCOCCOCCOCCOCCOCCOCCOCCOCCOCCOCCOCCOCCOCCOCCOCCn2cc(COCCOCCOCCOCCOCCOCCNC(=O)CCCn3c(=O)c(=O)[nH]c4cc([N+](=O)[O-])c(-n5ccnc5)cc43)nn2)cc1 [YM90K.1DART.2] |  |  |  |  |  | potent antagonism of the AMPAR | no impact on locomotion
